Measured values: patent US20120088662A1, “FUNGICIDAL MIXTURES” (BASF SE, priority 2009, published 2012)
Like-named read-outs stand apart in the source and are kept apart here.

Columns and labels:
[1] = system: Septoria tritici; assay: Use Example G5: protective activity against Septoria leaf blotch of wheat (Septtr P1); format: in vivo; settings: alone, untreated control 83 % infection
Experimental: (§1) The active compounds were prepared separately or jointly as a stock solution with 25 mg of active compound which was made up to 10 ml using a mixture of acetone and/or DMSO and the emulsifier Wettol EM 31 (wetting agent having emulsifying and dispersing action based on ethoxylated alkylphenols) in a volume ratio of solvent:emulsifier of 99:1. The mixture was then made up with water to 100 ml. This stock solution was diluted with the solvent/emulsifier/water mixture described to give the active compound concentration stated below. Alternatively, the active compounds were used as a commercial finished formulation and diluted with water to the stated active compound concentration.
(§2) The visually determined values for the percentage of infected leaf area were initially converted into a mean value and then converted into efficancies in % of the untreated control. An efficacy of 0 means the same degree of infection as in the untreated control, an efficacy of 100 means 0% infection.
(§3) Leaves of potted wheat seedlings were sprayed to runoff point with an aqueous suspension having the active compound concentration stated below. 24 hours after the spray coating had dried on, they were inoculated with an aqueous spore suspension of Septoria tritici. The test plants were then placed in a greenhouse at temperatures between 18 and 22° C. and a relative atmospheric humidity close to 100% for 4 days and then at temperatures between 18 and 22° C. and an atmospheric humidity of about 70%. After 21 days, the extent of the development of the disease was determined visually in % infection of the total leaf area.

[2] = system: Septoria tritici; assay: Use Example M4: activity against Septoria leaf spot pathogen in the microtiter test (Septtr); format: cell-based; settings: alone
[3] = system: Pyrenophora teres; assay: Use Example M5: activity against Pyrenophora teres in the microtiter test (Pymte); format: cell-based; settings: alone
[4] = system: Phakopsora pachyrhizi; assay: Use Example G3: curative activity against soybean rust (Phakpa K4); format: in vivo; settings: alone, untreated control 76 % infection
Experimental: as §1, §2
Leaves of potted soybean seedlings were inoculated with a spore suspension of soybean rust (Phakpsora pachyrhizi). The pots were then placed in a chamber of high atmospheric humidity (90 to 95%) and 20 to 24° C. for 24 hours. During this time, the spores germinated and the germ tubes penetrated into the leaf tissue. The infected plants were then cultivated further in a greenhouse at temperatures between 23 and 27° C. and 60 to 80% relative atmospheric humidity. After three days, the plants were sprayed to runoff point with the active compound solution described above at the active compound concentration stated below. After the spray coating had dried on, the test plants were cultivated in a greenhouse at temperatures between 23 and 27° C. and 60 to 80% relative atmospheric humidity for a further 10 days. The extent of the rust fungus development on the leaves was then determined visually in % infection.

[5] = system: Phytophthora infestans; format: in vivo; settings: alone, untreated control 86 % infection
[6] = system: Puccinia recondita; assay: Use Example G4: protective activity against brown rust of wheat (Puccrt P1); format: in vivo; settings: alone, untreated control 79 % infection
Experimental: as §1, §2
Leaves of potted wheat seedlings were sprayed to runoff point with an aqueous suspension having the active compound concentration stated below. The next day, the treated plants were inoculated with a spore suspension of brown rust of wheat (Puccinia recondita). The plants were then placed in a chamber of high atmospheric humidity (90 to 95%) at 20 to 24° C. for 24 hours. During this time, the spores germinated and the germ tubes penetrated into the leaf tissue. The next day, the test plants were returned to the greenhouse and cultivated at temperatures between 20 and 24° C. and 65 to 70% relative atmospheric humidity for a further 7 days. The extent of the rust fungus development on the leaves was then determined visually.

[7] = system: Pyricularia oryzae; format: cell-based; settings: alone
[8] = system: Phytophthora infestans; format: cell-based; settings: single active compound
[9] = system: Botrytis cinerea; assay: Use Example M2: activity against gray mold pathogen in the microtiter test (Botrci); format: cell-based; settings: single active compound
[10] = system: Septoria tritici; assay: Use Example G6: protective activity against Septoria leaf blotch of wheat (Septtr P1), % infection; format: in vivo; settings: 150 ppm, protective spray, after 21 days, untreated control 60% infected
Experimental: as §1, §3

[11] = system: Phakopsora pachyrhizi; assay: Use Example G7: curative activity against soybean rust (Phakpa K3), % infection; format: in vivo; settings: 150 ppm, curative spray two days after inoculation, further 10 days, untreated control 80% infected
Experimental: as §1
Leaves of potted soybean seedlings were inoculated with a spore suspension of soybean rust (Phakpsora pachyrhizi). The pots were then placed in a chamber of high atmospheric humidity (90 to 95%) and 20 to 24° C. for 24 hours. During this time, the spores germinated and the germ tubes penetrated into the leaf tissue. The infected plants were then cultivated further in a greenhouse at temperatures between 23 and 27° C. and 60 to 80% relative atmospheric humidity. […] The extent of the rust fungus development on the leaves was then determined visually in % infection.

[12] = system: Septoria tritici; assay: Comparison No. C1: activity against Septoria leaf blotch pathogen in the microtiter test (Septtr); settings: relative growth, active compound-free control = 100%
Experimental: An aqueous malt-based spore suspension of Septoria tritici was then added. The plates were placed in a water vapor-saturated chamber at a temperature of 18° C. Using an absorption photometer, the MTPs were measured at 405 nm on day 7 after the innoculation.

[13] = system: Botrytis cinerea; assay: Use Example G1: gray mold on bell pepper leaves, protective application (Botrci P1); format: in vivo; settings: 1 ppm, alone; untreated control 86 % infection
Experimental: as §1, §2
Bell pepper seedlings were after 2-3 leaves were well developed, sprayed to runoff point with an aqueous suspension having the active compound concentration stated below. The next day, the treated plants were inoculated with a spore suspension of Botrytis cinerea in a 2% biomalt solution. […] After 5 days, the extent of the fungal infection on the leaves could be determined visually in %.

`Fc1ccc([C@]2(Cn3cncn3)O[C@H]2c2ccccc2Cl)cc1` (racemic) [epoxiconazole] showed an Observed effect ([1]; 1 ppm) of 24%, an Observed effect ([2]; 0.004 ppm) of 6 and an Observed effect ([2]; 0.016 ppm) of 22. For the same molecule, the Observed effect ([3]; 0.004 ppm) was 0%, the Observed effect ([3]; 0.016 ppm) was 0% and the Observed effect ([4]; 0.063 ppm) was 63%. It also gave an Observed effect ([5]; 1 ppm) of 1%, an Observed effect ([6]; 0.016 ppm) of 0% and an Observed effect ([7]; ternary table, 0.016 ppm) of 0.

`Fc1ccc([C@@]2(Cn3nc[nH]c3=S)O[C@H]2c2ccccc2Cl)cc1` (relative stereo) [I-1, trans-2-[3-(2-chlorophenyl)-2-(4-fluorophenyl)oxiranylmethyl]-2,4-dihydro-[1,2,4]triazole-3-thione] gave an Observed effect ([1]; 1 ppm) of 8%, an Observed effect ([3]; 0.004 ppm) of 2% and an Observed effect ([3]; 0.016 ppm) of 5%. For the same molecule, the Observed effect ([4]; 0.063 ppm) was 17%, the Observed effect ([5]; 1 ppm) was 0% and the Observed effect ([6]; 0.016 ppm) was 0%. For the same molecule, the Observed effect ([7]; 16 ppm) was 3.

In the case of `CC(=O)Sc1ncnn1C[C@]1(c2ccc(F)cc2)O[C@H]1c1ccccc1Cl` (relative stereo) [I-3, trans-S-{2-[3-(2-chlorophenyl)-2-(4-fluorophenyl)oxiranylmethyl]-2H-[1,2,4]triazol-3-yl}thioacetate], the Observed effect ([2]; 1 ppm) is reported as 3, the Observed effect ([8]; 63 ppm) is reported as 43% and the Observed effect ([9]; 16 ppm) is reported as 15%. The Observed effect ([7]; 16 ppm) was 8 and the Observed effect ([7]; 63 ppm) was 62.

For `N#CSc1ncnn1C[C@]1(c2ccc(F)cc2)O[C@H]1c1ccccc1Cl` (relative stereo) [I-6, trans-1-[3-(2-chlorophenyl)-2-(4-fluorophenyl)oxiranylmethyl]-5-thiocyanato-1H-[1,2,4]triazole], the “infection (% infection of the total leaf area)” value [10] was 0% and the “infection (rust fungus development on the leaves, % infection)” value [11] was 0%.

With `Fc1ccc([C@@]2(Cn3ncnc3S)O[C@H]2c2ccccc2F)cc1` (relative stereo) [I-8, trans-2-[2-(4-fluorophenyl)-3-(2-fluorophenyl)oxiranylmethyl]-2H-[1,2,4]triazole-3-thiole] the Observed effect ([9]; 63 ppm) was 24%.

`[Na+].[S-]c1ncnn1C[C@]1(c2ccccc2Cl)O[C@H]1c1ccccc1Cl` (relative stereo) [I-10, sodium 2-[trans-2,3-bis-(2-chlorophenyl)oxiranylmethyl]-2H-[1,2,4]triazole-3-thiolate] showed an Observed effect ([8]; 16 ppm) of 30% and an Observed effect ([7]; 16 ppm) of 35.

`S=c1[nH]cnn1C[C@]1(c2ccccc2)O[C@H]1c1ccccc1Cl` (relative stereo) [I-12, 2-[trans-3-(2-chlorophenyl)-2-phenyloxiranylmethyl]-2,4-dihydro-[1,2,4]triazole-3-thione] showed an Observed effect ([7]; 16 ppm) of 7 and an Observed effect ([7]; 63 ppm) of 16.

`Fc1ccccc1[C@@]1(Cn2nc[nH]c2=S)O[C@H]1c1ccccc1Cl` (relative stereo) [I-14, 2-[trans-3-(2-chlorophenyl)-2-(2-fluorophenyl)oxiranylmethyl]-2,4-dihydro-[1,2,4]triazole-3-thione] showed an Observed effect ([2]; 1 ppm) of 0, an Observed effect ([8]; 16 ppm) of 26% and an Observed effect ([7]; 16 ppm) of 18.

With `CCSc1ncnn1C[C@]1(c2ccc(F)cc2)O[C@H]1c1ccccc1Cl` (relative stereo) [I-18, trans-1-[3-(2-chlorophenyl)-2-(4-fluorophenyl)oxiranylmethyl]-5-ethylsulfanyl-1H-[1,2,4]triazole] the “Growth in % at 8 ppm for Septtr” value [12] was 39%.

With `CSc1ncnn1CC1(c2ccc(F)cc2)OC1c1ccccc1Cl` (stereo not shown) [Prior art (WO 96/38440)] the “Growth in % at 8 ppm for Septtr” value [12] was 65%.

With `O=C(Nc1ccccc1-c1ccc(Cl)cc1)c1cccnc1Cl` [boscalid] the Observed effect ([1]; 4 ppm) was 10%, the Observed effect ([2]; ternary table, 0.063 ppm) was 10 and the Observed effect ([8]; 4 ppm) was 4%. The Observed effect ([8]; 16 ppm) was 20%, the Observed effect ([6]; 0.063 ppm) was 0% and the Observed effect ([7]; 16 ppm) was 8. For the same molecule, the Observed effect ([7]; ternary table, 4 ppm) was 0.

With `COC(=O)Nc1nc2ccccc2[nH]1` [carbendazim] the Observed effect ([3]; 0.004 ppm) was 0%.

For `N#Cc1c(Cl)c(Cl)c(Cl)c(C#N)c1Cl` [chlorothalonil], the Observed effect ([2]; 0.063 ppm) was 3, the Observed effect ([2]; ternary table, 0.063 ppm) was 3 and the Observed effect ([7]; ternary table, 0.063 ppm) was 4.

With `CNC(=O)/C(=N/OC)c1ccccc1COc1cc(C)ccc1C` [dimoxystrobin] the Observed effect ([3]; 0.004 ppm) was 4%.

With `CO/N=C(/C(=O)OC)c1ccccc1COc1ccccc1C` [kresoxim-methyl] the Observed effect ([4]; 1 ppm) was 39%.

Molecule `CNC(=O)/C(=N/OC)c1ccccc1CO/N=C(C)/C(=N/OC)C(/C)=N/OC` [orysastrobin] has an Observed effect ([2]; ternary table, 0.004 ppm) of 2, an Observed effect ([9]; 0.016 ppm) of 1% and an Observed effect ([9]; 1 ppm) of 2%. For the same molecule, the Observed effect ([7]; ternary table, 0.016 ppm) was 2.

Molecule `COC(=O)N(OC)c1ccccc1COc1ccn(-c2ccc(Cl)cc2)n1` [pyraclostrobin] has an Observed effect [13] of 1% and an Observed effect ([8]; 16 ppm) of 16%.

`Cc1cc(C)nc(Nc2ccccc2)n1` [pyrimethanil] was tested, and the Observed effect ([7]; 4 ppm) was 47.

Molecule `COC(=O)NC(=S)Nc1ccccc1NC(=S)NC(=O)OC` [thiophanate-methyl] has an Observed effect ([4]; 4 ppm) of 8% and an Observed effect ([5]; 63 ppm) of 0%.
